According to ChEMBL document CHEMBL5316343, “Design, Synthesis, and Biological Evaluation of a Potent Dual EZH2-BRD4 Inhibitor for the Treatment of Some Solid Tumors” (J Med Chem, 2023):
Blank lines part the entries; values can stand above or below the compound they belong to. Active and inactive are the calls of the source. The calls are words filed in the database; no cut-off is given here.

Legend:
[1] = target: Bromodomain-containing protein 4 (Homo sapiens, UniProt O60885); assay: Inhibition of BRD4 (unknown origin) by HTRF analysis
[2] = target: T1, Histone-lysine N-methyltransferase EZH2 (Homo sapiens, UniProt Q15910); assay: Inhibition of EZH2 (unknown origin) by radiometric assay
Target sequence in this assay (Q15910 whole entry): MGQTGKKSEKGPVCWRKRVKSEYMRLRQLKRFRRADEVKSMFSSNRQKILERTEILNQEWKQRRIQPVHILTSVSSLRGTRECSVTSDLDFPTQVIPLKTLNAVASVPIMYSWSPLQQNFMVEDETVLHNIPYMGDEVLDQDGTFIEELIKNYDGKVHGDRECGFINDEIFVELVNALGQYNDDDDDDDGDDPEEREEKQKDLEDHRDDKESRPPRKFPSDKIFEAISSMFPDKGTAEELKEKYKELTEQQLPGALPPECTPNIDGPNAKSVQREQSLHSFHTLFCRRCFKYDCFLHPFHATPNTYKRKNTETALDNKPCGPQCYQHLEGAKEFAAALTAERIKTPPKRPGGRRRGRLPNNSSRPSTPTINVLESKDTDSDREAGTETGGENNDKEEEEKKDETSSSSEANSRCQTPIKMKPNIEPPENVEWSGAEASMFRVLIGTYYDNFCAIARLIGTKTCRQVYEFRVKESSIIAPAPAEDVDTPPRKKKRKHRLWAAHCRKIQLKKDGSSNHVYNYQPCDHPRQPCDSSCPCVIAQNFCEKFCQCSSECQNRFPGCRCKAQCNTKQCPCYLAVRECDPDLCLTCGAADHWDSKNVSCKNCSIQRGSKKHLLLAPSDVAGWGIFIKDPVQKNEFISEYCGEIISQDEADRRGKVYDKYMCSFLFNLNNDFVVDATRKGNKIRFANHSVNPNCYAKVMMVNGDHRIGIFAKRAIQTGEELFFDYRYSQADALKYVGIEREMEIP

[3] = system: BXPC-3; assay: Inhibition of colony formation in human BXPC-3 cells assessed as reduction in number of cell colonies at 2.5 uM incubated for 10 to 14 days by crystal violet staining based analysis; type: functional; settings: time 10-14 day
[4] = system: Mus musculus; assay: In vivo inhibition of EZH2 in Balb/c nude mouse xenografted with human BXPC-3 cells assessed as reduction in H3K27me3 level in tumor at 60 mg/kg, ip administered daily for 30 days by IHC analysis; type: functional, organism-based; settings: time 30.0 day
[5] = system: MDA-MB-231; assay: Inhibition of colony formation in human MDA-MB-231 cells assessed as reduction in colony size at 0.1 to 2.5 uM incubated for 10 to 14 days in the presence of JQ1 by crystal violet staining based analysis; type: functional, cell-based; settings: dose 0.1-2.5 µM, time 10-14 day
[6] = system: BXPC-3; assay: Inhibition of cell proliferation in human BXPC-3 cells assessed as decrease in c-Myc protein level at 5 uM incubated for 48 hrs by IHC analysis; type: functional, cell-based
[7] = target: T1, Histone-lysine N-methyltransferase EZH2; assay: Inhibition of EZH2 in human BXPC-3 cells assessed as increase in H3K27ac level at 5 uM by fluorescence based analysis; type: cell-based
Target sequence in this assay (Q15910 whole entry, looked up): as the sequence (Q15910 whole entry) above

[8] = system: BXPC-3; assay: Inhibition of colony formation in human BXPC-3 cells assessed as reduction in number of cell colony at 0.1 to 2.5 uM incubated for 10 to 14 days in the presence of JQ1 by crystal violet staining based analysis; type: functional; settings: dose 0.1-2.5 µM, time 10-14 day
[9] = system: MDA-MB-231; assay: Induction of apoptosis in human MDA-MB-231 cells assessed as late apoptotic cells at 5 uM incubated for 48 hrs by Annexin V-FITC/PI staining based flow cytometric analysis (reference value: 1.06%); type: functional
[10] = system: BXPC-3; assay: Induction of apoptosis in human BXPC-3 cells assessed as early apoptotic cells at 5 uM incubated for 48 hrs by Annexin V-FITC/PI staining based flow cytometric analysis (reference value: 3.28 %); type: functional
[11] = Toxicity in Balb/c nude mouse xenografted with human BXPC-3 cells assessed as effect on body weight at 60 mg/kg, ip administered daily for 30 days; type: organism-based; settings: in vivo, 720 h, time 30 day
[12] = system: BXPC-3; assay: Induction of apoptosis in human BXPC-3 cells assessed as late apoptotic cells at 5 uM incubated for 48 hrs by Annexin V-FITC/PI staining based flow cytometric analysis (reference value: 4.38 %); type: functional
[13] = system: BXPC-3; assay: Inhibition of colony formation in human BXPC-3 cells incubated for 10 to 14 days in the presence of JQ1 by crystal violet staining based analysis; type: functional, cell-based; settings: dose 0.1-2.5 µM, time 10-14 day
[14] = system: BXPC-3; assay: Inhibition of colony formation in human BXPC-3 cells assessed as reduction in colony size at 2.5 uM incubated for 10 to 14 days by crystal violet staining based analysis; type: functional, cell-based; settings: time 10-14 day
[15] = system: MDA-MB-231; assay: Inhibition of colony formation in human MDA-MB-231 cells assessed as reduction in colony size at 2.5 uM incubated for 10 to 14 days by crystal violet staining based analysis; type: functional, cell-based; settings: time 10-14 day
[16] = system: MDA-MB-231; assay: Inhibition of cell proliferation in human MDA-MB-231 cells assessed as decrease in c-Myc protein level at 5 uM incubated for 48 hrs by IHC analysis; type: functional, cell-based
[17] = target: T1, Histone-lysine N-methyltransferase EZH2; assay: Inhibition of EZH2 in human MDA-MB-231 cells assessed as decrease in H3K27me3 level at 5 uM by fluorescence based analysis; type: cell-based
Target sequence in this assay (Q15910 whole entry, looked up): as the sequence (Q15910 whole entry) above

[18] = system: MDA-MB-231; assay: Inhibition of cell proliferation in human MDA-MB-231 cells assessed as decrease in c-Myc mRNA level at 5 uM incubated for 48 hrs by qRT-PCR analysis; type: functional, cell-based
[19] = system: BXPC-3; assay: Inhibition of cell proliferation in human BXPC-3 cells assessed as decrease in c-Myc mRNA level at 5 uM incubated for 48 hrs by qRT-PCR analysis; type: functional, cell-based
[20] = system: Mus musculus; assay: In vivo inhibition of EZH2 in Balb/c nude mouse xenografted with human BXPC-3 cells assessed as increase in H3K27ac level in tumor at 60 mg/kg, ip administered daily for 30 days by IHC analysis; type: functional, organism-based; settings: time 30.0 day
[21] = system: BXPC-3; assay: Inhibition of colony formation in human BXPC-3 cells assessed as reduction in colony size at 0.1 to 2.5 uM incubated for 10 to 14 days in the presence of JQ1 by crystal violet staining based analysis; type: functional, cell-based; settings: dose 0.1-2.5 µM, time 10-14 day
[22] = system: MDA-MB-231; assay: Inhibition of colony formation in human MDA-MB-231 cells incubated for 10 to 14 days in the presence of JQ1 by crystal violet staining based analysis; type: functional, cell-based; settings: dose 0.1-2.5 µM, time 10-14 day
[23] = system: MDA-MB-231; assay: Induction of apoptosis in human MDA-MB-231 cells assessed as viable cells at 5 uM incubated for 48 hrs by Annexin V-FITC/PI staining based flow cytometric analysis (reference value: 97.63%); type: functional; settings: read-out: Activity
[24] = system: MDA-MB-231; assay: Inhibition of colony formation in human MDA-MB-231 cells assessed as reduction in number of cell colonies at 0.1 to 2.5 uM incubated for 10 to 14 days in the presence of JQ1 by crystal violet staining based analysis; type: functional; settings: dose 0.1-2.5 µM, time 10-14 day
[25] = target: T1, Histone-lysine N-methyltransferase EZH2; assay: Inhibition of EZH2 in human BX-PC-3 cells assessed as decrease in H3K27me3 level at 5 uM by fluorescence based analysis; type: cell-based; settings: BXPC-3
Target sequence in this assay (Q15910 whole entry, looked up): as the sequence (Q15910 whole entry) above

[26] = system: MDA-MB-231; assay: Induction of apoptosis in human MDA-MB-231 cells assessed as necrotic cells at 5 uM incubated for 48 hrs by Annexin V-FITC/PI staining based flow cytometric analysis (reference value: 0.63%); type: functional
[27] = target: T1, Histone-lysine N-methyltransferase EZH2; assay: Inhibition of EZH2 in human MDA-MB-231 cells assessed as increase in H3K27ac level at 5 uM by fluorescence based analysis; type: cell-based
Target sequence in this assay (Q15910 whole entry, looked up): as the sequence (Q15910 whole entry) above

[28] = system: BXPC-3; assay: Antitumor activity against human BXPC-3 cells xenografted in Balb/c nude mouse assessed as reduction in tumor growth at 60 mg/kg, ip administered daily for 30 days; type: functional, organism-based; settings: time 30.0 day
[29] = target: T2, Histone-lysine N-methyltransferase EZH1 (Homo sapiens, UniProt Q92800); assay: Inhibition of EZH1 (unknown origin) by radiometric assay
T2 sequence (Q92800 whole entry): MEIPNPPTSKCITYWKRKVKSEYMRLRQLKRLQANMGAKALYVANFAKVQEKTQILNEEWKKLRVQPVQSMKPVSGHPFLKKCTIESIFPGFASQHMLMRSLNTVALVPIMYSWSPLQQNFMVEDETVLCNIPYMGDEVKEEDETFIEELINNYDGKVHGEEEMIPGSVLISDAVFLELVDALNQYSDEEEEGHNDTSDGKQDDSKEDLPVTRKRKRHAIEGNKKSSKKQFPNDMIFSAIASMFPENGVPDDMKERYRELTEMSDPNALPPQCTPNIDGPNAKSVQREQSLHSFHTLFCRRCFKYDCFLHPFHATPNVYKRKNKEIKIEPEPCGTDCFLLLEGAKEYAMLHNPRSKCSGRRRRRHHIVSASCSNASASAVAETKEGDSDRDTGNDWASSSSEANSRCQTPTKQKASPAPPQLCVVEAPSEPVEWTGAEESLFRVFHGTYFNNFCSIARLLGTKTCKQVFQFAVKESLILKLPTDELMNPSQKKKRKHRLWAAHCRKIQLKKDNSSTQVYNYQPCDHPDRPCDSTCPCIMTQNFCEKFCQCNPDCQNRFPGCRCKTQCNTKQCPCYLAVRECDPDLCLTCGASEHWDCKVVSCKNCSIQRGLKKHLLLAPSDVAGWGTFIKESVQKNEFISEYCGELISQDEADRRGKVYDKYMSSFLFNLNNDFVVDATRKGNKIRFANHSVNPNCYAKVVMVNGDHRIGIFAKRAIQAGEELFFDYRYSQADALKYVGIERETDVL

[30] = system: MDA-MB-231; assay: Inhibition of colony formation in human MDA-MB-231 cells assessed as reduction in number of cell colonies at 2.5 uM incubated for 10 to 14 days by crystal violet staining based analysis; type: functional; settings: time 10-14 day
[31] = system: BXPC-3; assay: Induction of apoptosis in human BXPC-3 cells assessed as viable cells at 5 uM incubated for 48 hrs by Annexin V-FITC/PI staining based flow cytometric analysis (reference value: 90.70%); type: functional; settings: read-out: Activity
[32] = system: BXPC-3; assay: Induction of apoptosis in human BXPC-3 cells assessed as necrotic cells at 5 uM incubated for 48 hrs by Annexin V-FITC/PI staining based flow cytometric analysis (reference value: 1.65 %); type: functional
[33] = system: MDA-MB-231; assay: Induction of apoptosis in human MDA-MB-231 cells assessed as early apoptotic cells at 5 uM incubated for 48 hrs by Annexin V-FITC/PI staining based flow cytometric analysis (reference value: 0.69%); type: functional

Compound: CCC(C)n1cc(C)c2c(C(=O)NCc3c(C)cc(C)[nH]c3=O)cc(-c3ccc(N4CCNCC4)nc3)cc21 (stereo unspecified)
- inhibition [3]: inactive
- inhibition [4]: Active
- inhibition [5]: Active
- inhibition [6]: inactive
- inhibition [7]: Active
- inhibition [8]: Active
- Activity [9]: 0.92%
- Activity [10]: 3.18%
- Activity [11]: Non-Toxic
- Activity [12]: 3.86%
- inhibition [13]: Dose-Dependent Effect
- inhibition [14]: inactive
- inhibition [15]: inactive
- inhibition [16]: inactive
- inhibition [17]: Active
- inhibition [18]: inactive
- inhibition [19]: inactive
- inhibition [20]: Active
- inhibition [21]: Active
- inhibition [22]: Dose-Dependent Effect
- viability at 5 µM [23]: 97%
- inhibition [24]: Active
- inhibition [25]: Active
- Activity [26]: 0.3%
- inhibition [27]: Active
- Activity [28]: inactive
- IC50 [29]: 124 nM
- inhibition [30]: inactive
- viability at 5 µM [31]: 91.9%
- Activity [32]: 0.98%
- Activity [33]: 1.83%

Compound: Cc1[nH]c(=O)c(CNC(=O)c2cc(-c3cn(C)c(=O)c4[nH]ccc34)cc3c2cnn3C2CCCC2)c2c1CCCC2
- IC50 [1]: > 300 nM
- IC50 [2]: 46 nM

Compound: Cc1cc(C)c(CNC(=O)c2cc(-c3cn(C)c(=O)c4[nH]ccc34)cc3c2cnn3C2CCCC2)c(=O)[nH]1
- IC50 [1]: > 300 nM
- IC50 [2]: 37 nM

Compound: Cc1[nH]c(=O)c(CNC(=O)c2cc(-c3cn(C)c(=O)c4[nH]ccc34)cc3c2ccn3C2CCCC2)c2c1CCCC2
- IC50 [1]: > 300 nM
- IC50 [2]: 8.3 nM

Compound: Cc1[nH]c(=O)c(CNC(=O)c2cc(-c3cn(C)c(=O)c4[nH]ccc34)cc3[nH]ccc23)c2c1CCCC2
- IC50 [1]: > 300 nM
- IC50 [2]: 100 nM

Compound: Cc1[nH]c(=O)c(CNC(=O)c2cc(-c3cn(C)c(=O)c4[nH]ccc34)cc3c2c(C)cn3CC2CCCCC2)c2c1CCCC2
- IC50 [1]: > 300 nM
- IC50 [2]: > 100 nM

Compound: CCC(CC)n1ccc2c(C(=O)NCc3c4c(c(C)[nH]c3=O)CCCC4)cc(-c3cn(C)c(=O)c4[nH]ccc34)cc21
- IC50 [1]: > 300 nM
- IC50 [2]: 16 nM

The remaining lines, values ahead:

- IC50 [1]: > 300 nM
- IC50 [2]: 12.3 nM
Compound: Cc1[nH]c(=O)c(CNC(=O)c2cc(-c3cn(C)c(=O)c4[nH]ccc34)cc3c2ccn3C(C)C)c2c1CCCC2

- IC50 [1]: 214 nM
- IC50 [2]: 5.7 nM
Compound: Cc1cc(C)c(CNC(=O)c2cc(-c3cn(C)c(=O)c4[nH]ccc34)cc3c2ccn3C(C)C)c(=O)[nH]1

- IC50 [1]: > 300 nM
- IC50 [2]: > 100 nM
Compound: Cc1cc(C)c(CNC(=O)c2cc(-c3cn(C)c(=O)c4[nH]ccc34)cc3[nH]cc(C)c23)c(=O)[nH]1

- IC50 [1]: 278 nM
- IC50 [2]: 5 nM
Compound: Cc1cc(C)c(CNC(=O)c2cc(-c3cn(C)c(=O)c4[nH]ccc34)cc3c2ccn3C2CCCC2)c(=O)[nH]1
